The assay has as its system VACV. The assay is classed as cell-based, vaccinia virus. To be noted: 100 pfu VACV, 48 HPI.

Take `C=C(C)[C@@H]1CC[C@]2(C)CC[C@]3(C)[C@H](CC[C@@H]4[C@@]5(C)CC[C@H](O)C(C)(C)[C@@H]5CC[C@]43C)[C@@H]12` [lupeol]: the “antiviral activity, VACV plaques” value is reported as “did not show suitable antiviral activity”.

Source of the values: patent US10842838B2, “Method for the use of botanical extracts in the treatment of viral infections” (priority 2012, dated 2020).
